Legend:
C2C12 cells [1] = tested on: C2C12 cells
Experimental: (§1) Data are presented as a percentage of the vehicle-treated control ±SEM (n=10 wells at each concentration). […] Experiments commenced 18 hr. after addition of drug. […] Data are presented as a percentage of the vehicle-treated control±SEM (n=14-17 wells for each group).
(§2) The C2C12 mouse myoblast cell line (ATCC, Manasses, Va.) was cultured in Dulbecco's Modified Eagle Medium (DMEM; Gibco®; Carlsbad, Calif.) supplemented with 10% fetal bovine serum (FBS), 2 mM GlutaMax® and penicillin/streptomycin. Cells were maintained in 10% CO2 humidified at 37° C.
(§3) Cellular viability was measured using CellTiter-Blue® (Promega Corp., Madison, Wis.) in black-walled optical imaging multiwell plates, and cellular ATP was measured using the CellTiter-Glo® (Promega Corp., Madison, Wis.) luminescence assay in opaque-walled multiwell plates according to the manufacturer's protocol.

C2C12 myoblasts = assay: OCR and ECAR in C2C12 myoblasts (Seahorse); format: cell-based, mouse; conditions: dexpramipexole 30 μM or PSI 30 nM alone, 18 hr
Experimental: as §2
OCR and ECAR were measured with a Seahorse® XF24 Flux Analyzer (Seahorse Bioscience, Billerica, Mass.). For PSI experiments on C2C12 cells, basal values were assessed in non-buffered DMEM Assay Medium without glucose, glutamine or pyruvate, and supplemented with 25 mM glucose, 6 mM Glutamax®, and 1 mM sodium pyruvate. […] Succinate and ADP stocks were diluted to 10× concentrations in pre-warmed XF MAS buffer, pH 7.2. Using a Plate Prep Station (Seahorse Bioscience, Billerica, Mass.), cells were washed with 1 mL buffer and were brought to 607 μL with buffer. […] Raw basal OCR and ECAR values were normalized as a percent of the mean control value for each individual experiment. Normalized data from experiments were expressed as mean±SEM.

C2C12 cells [2] = format: cell-based, mouse
Experimental: as §1, §2, §3

[3] = tested on: SH-SY5Y neuroblastoma cells; assay: PSI-induced cell death in SH-SY5Y cells (CellTiter-Blue); conditions: 24 hr exposure to PSI at 150 or 650 nM
Experimental: Data shown represent mean±SEM. […] Bar graphs represent normalized mean±SEM. Cell viability was measured by CellTiter-Blue®; n=41-98 wells/condition.
Undifferentiated SH-SY5Y human neuroblastoma cells (ATCC, Manasses, Va.) were maintained in humidified 5% CO2 in 1:1 Ham's F12 nutrient mixture with Glutamax® and Minimal Essential Medium with L-glutamine (MEM-Alpha), 10% FBS, and 1% penicillin/streptomycin (Gibco® Invitrogen Corp., Carlsbad, Calif.).
as §3

[4] = target: T1, intermediate- and large-conductance channel activity of PSI-mitochondria (Rattus norvegicus, UniProt P19511+Q06647); assay: Patch clamp recording of brain-derived PSI-mitochondria; format: biochemical; conditions: subcortex mitochondria vs control animals
T1 sequence (P19511 43-256): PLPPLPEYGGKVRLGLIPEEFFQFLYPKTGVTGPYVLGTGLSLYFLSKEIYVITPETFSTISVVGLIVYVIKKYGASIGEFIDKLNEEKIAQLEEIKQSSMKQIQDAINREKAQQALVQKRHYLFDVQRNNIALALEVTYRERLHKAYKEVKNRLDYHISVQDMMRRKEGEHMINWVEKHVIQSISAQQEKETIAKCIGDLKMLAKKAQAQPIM
T1 sequence (Q06647 24-213): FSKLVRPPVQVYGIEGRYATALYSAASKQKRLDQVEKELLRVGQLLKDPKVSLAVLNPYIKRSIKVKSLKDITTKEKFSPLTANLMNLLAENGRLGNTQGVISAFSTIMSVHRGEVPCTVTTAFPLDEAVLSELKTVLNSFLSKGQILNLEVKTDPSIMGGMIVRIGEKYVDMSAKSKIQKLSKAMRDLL
Experimental: Isolation of Brain-derived Mitochondria. Standard techniques were adapted for isolating brain-derived mitochondria. Mitochondria were stored in isolation buffer (IB) at −80° C. For PSI-mitochondria, male Sprague-Dawley rats (6 wo, ˜200 gm, 3-6 rats/group/condition, at least 2 different preparations/experimental paradigm) were injected with the ubiquitin proteasome inhibitor Z-Ile-Glu(OtBu)-Ala-Leu-al (PSI; Peptides International Inc, Kentucky, USA; s.c. every other day for 1 or 2 weeks; 6.0 mg/kg PSI in DMSO, or with DMSO, 200 μL/rat), and mitochondria isolated and stored as above.
Reagents were rapidly perfused into the recording chamber.

[5] = tested on: digitonin-treated cortical neurons; assay: ATP production following ADP pulse in digitonin-treated cortical neurons; format: cell-based, rat; conditions: dexpramipexole 30 μM
[6] = tested on: leak conductance of urea-treated SMVs; assay: Patch clamp recordings of urea-treated SMVs (F1 removed); format: biochemical, rat
Experimental: F1 subunits were removed from SMVs by adapting previously-established methods. 60 mg SMV's/1 mL IB was treated with 1 mL of […] for 5 min. on ice, then centrifuged at 21000×g for 10 min. The pellet was washed 3× in IB (centrifugation at 21000×g for 10 min) and stored in IB.
Giga-ohm seals were formed on SMVs using pipettes and solutions as above. Peak membrane conductance was measured as described above.

complex V (F1FO ATPase) = complex V (F1FO ATPase) (Rattus norvegicus, UniProt P19511+Q06647); assay: ATP hydrolysis in SMVs, luciferin-luciferase assay; format: biochemical; parameters: from tissue; host or cells: rat brain mitochondria, lubrol-insoluble submitochondrial vesicles (SMVs); conditions: in these assays (NADH and luciferase)
Text: 3 wells were used for each condition, repeated at least 3× on different SMV isolations.

[7] = tested on: calcium (Ca2+)-induced membrane currents in rat liver mitoplasts; conditions: cited from earlier work
[8] = tested on: models of cell death and NDDs; conditions: non-dopaminergic mechanism; cited from earlier work

Z-Ile-Glu(OtBu)-Ala-Leu-H [PSI, reference compound]
concentrations reducing cellular viability (C2C12 cells [1]; 18 hr exposure): > 60 nM | cell viability (C2C12 cells [1]; dexpramipexole 30 μM or PSI 30 nM, 18 hr, relative to control): neither ATP levels nor cell viability (FIG. 5b) were significantly affected | ECAR (C2C12 myoblasts): very significant increase in ECAR | OCR (C2C12 myoblasts): did not display a significant change in OCR | ATP levels (C2C12 cells [2]): neither ATP levels nor cell viability (FIG. 5b) were significantly affected | cell viability [3]: significant decreases in cell viability | intermediate- and large-conductance mitochondrial ion channel activity after repeated pre-treatment of rats [4]: significant increase

antimycin A [reference compound]
initial slope of ATP synthesis following an ADP pulse [5]: significantly reduced | maximal ATP levels [5]: significantly reduced

Nc1ncnc2c1ncn2[C@@H]1O[C@H](COP(=O)(O)OP(=O)(O)OP(=O)(O)O)[C@@H](O)[C@H]1O [ATP, adenosine triphosphate, reference compound]
leak conductance after removal of F1 [6]: still very effectively decreased the leak conductance

CC[C@H]1/C=C/C=C/C[C@@H](C)[C@H](O)[C@@](C)(O)C(=O)[C@@H](C)[C@H](O)[C@@H](C)C(=O)[C@@H](C)[C@H](O)[C@@H](C)/C=C/C(=O)O[C@@H]2[C@H](C)[C@H](CC1)O[C@]1(CC[C@H](C)[C@H](C[C@@H](C)O)O1)[C@H]2C [oligomycin, reference compound]
ATP hydrolysis (complex V (F1FO ATPase)): effectively inhibited ATP hydrolysis

CCCN[C@H]1CCc2nc(N)sc2C1 [pramipexole, (6S)-4,5,6,7-tetrahydro-N6-propyl-2,6-benzothiazole-diamine, reference compound]
Ca2+-induced membrane currents [7]: inhibit | protective concentrations [8]: ≥ 10 µM

Reference: patent publication US20130273557A1 (priority 2010, published 2013)
